The text below walks through data of US4323517A, “Methoxy and methylsulfinylthiolesters” (Troponwerke GmbH & Co. KG, priority 1977, dated 1982).

Each structure is given as a SMILES string. Entries after “also recorded” stand apart in the source; their conditions may differ. Read-outs that look alike come from different tables or passages of the source.

The test system of data set [1] is paw oedemas, caused by the administration of kaolin. Put plainly: kaolin paw oedema, antiphlogistic action in rats. Type of data set: in vivo. The source says: The anti-inflammatory action was detected in paw oedemas, caused by the administration of kaolin, in rats.
In addition to the effects described for compound A, it could also be shown that the other derivatives (see Table 2) likewise have a powerful anti-inflammatory action. The minimum doses which still cause a clearly detectable effect on the paw oedema after the administration of kaolin are listed in Table 2.
Rats, kaolin oedema, intramuscularly, n = 10/dose group

Another data set relates to rats. Conditions: intramuscular.
A further data set deals with yeast oedema. Put plainly: yeast oedema. Type of data set: in vivo. The conditions noted are these: im; intramuscularly. The source says:
(§1) Furthermore, A also has an action on other inflammation models. The ED50 values which follow are found (mg/kg; intramuscularly): formalin oedema 5.4, albumin oedema 6.3, yeast oedema 27.4, concanavalin oedema 3.4 and trypsin oedema 2.0.

Another data set has as its system trypsin oedema. Description: trypsin oedema. The data set is classed as in vivo. The conditions noted are these: im; intramuscularly.
Text: as §1

Data set [2] is described as follows: stomach ulcer (ulcerogenic action) in rats. Conditions: rat, in vivo.
The next data set deals with albumin oedema. Description: albumin oedema. The data set is classed as in vivo. Conditions: im; intramuscularly.
Text: as §1

A short description of another data set: in vivo. Conditions: rat.
For a further data set, the system named is concanavalin oedema. Description: concanavalin oedema. The data set is classed as in vivo. The conditions noted are these: im; intramuscularly.
Text: as §1

The next data set deals with formalin oedema. Description: formalin oedema. Conditions: im; intramuscularly. Type of data set: in vivo.
Text: as §1

The next data set has as its system kaolin oedema. Put plainly: comparison of the therapeutic range.
Data set [3] in a line: comparison of the therapeutic range. The conditions noted are these: rat, in vivo.
For data set [4], the system named is paw oedemas, caused by the administration of kaolin. Put plainly: kaolin paw oedema, antiphlogistic action in rats. Type of data set: in vivo. The conditions noted are these: Rattus norvegicus, read-out: Kaolin oedema ED50.
[5] abbreviates: Rattus norvegicus, im, rats, kaolin oedema, intramuscularly, n = 10/dose group, read-out: Inhibition in % of the controls.
[6] abbreviates: Rattus norvegicus, im, rats, intramuscularly, n = 10/dose group, read-out: ED50 (kaolin oedema).
The mark [7] stands for this setting: po, Therapeutic range LD50 / ED50 kaolin oedema, rats.

As for `CCC(C)SC(=O)CC[S+]([O-])C(C)CC` (centres unmarked) [S-sec.-Butyl 3-sec.-butylsulphinylpropionothioate], the inhibition in vivo at 100 mg/kg in data set [1] (setting [5]) was 90.5%.

What is called ED50 is the dose at which the effect has come halfway, by size or by number of responders. For the compound `C=CC(=O)SCC` [CH2 =CHCOSC2 H5, S-ethyl acrylthioate], in data set [1] (setting [6]), the ED50 came out at 1.5 mg/kg. In addition, the inhibition in vivo at 0.32 mg/kg in data set [1] (Rattus norvegicus, im, rats, kaolin oedema, intramuscularly, dose 0.32 mg/kg, n = 10/dose group, read-out: Inhibition in % of the controls) worked out at 18.5%.

For orientation: LD50 means the dose expected to kill half of the subjects tested. Higher therefore signals lower toxicity. `CSCCC(=O)SC` [A, S-methyl 3-methylthiopropionothioate]: the LD50 with rats was 4,587 μmols/kg; in the data set “in vivo” (im), 4590 µmol/kg. In addition, the 50% effective dose (ED50) with yeast oedema was 27.4 mg/kg; in [1] (Rattus norvegicus, im, rats, intramuscular, read-out: Kaolin oedema ED50), 4.85 µmol/kg; in the data set on trypsin oedema, 2 mg/kg; with albumin oedema, 6.3 mg/kg; with concanavalin oedema, 3.4 mg/kg; with formalin oedema it was 5.4 mg/kg. Besides, the “antiphlogistic (anti-inflammatory) action, in words” value in [1] (rat, in vivo) is “very pronounced antiphlogistic action”. Further, the TD50 in [2] (im) came to 256 µmol/kg. In addition, the “therapeutic range, in words” value with kaolin oedema (rat, in vivo) is “wide therapeutic range; also recorded: unexpected favourable therapeutic range”. In addition, the selectivity ratio in data set [3] amounted to 52.9; in [3] (Therapeutic range LD50 / ED50 kaolin oedema, rats, intramuscular), 946.

On to `CC=CC(=O)SC` [CH3 CH=CHCOSCH3, S-methyl crotonylthioate], for which the inhibition in vivo at 12.5 mg/kg in [1] (setting [5]) was found to be 16%.

In the case of `CCC(C)SC(=O)CCS(=O)(=O)C(C)CC` (centres unmarked) [S-sec.-Butyl 3-sec.-butylsulphonylpropionothioate], the inhibition in vivo at 12.5 mg/kg in [1] (setting [5]) stood at 33%.

For the compound `CC(C)CSC(=O)CCS(=O)(=O)CC(C)C` [(CH3)2 CHCH2 SO2 CH2 CH2 COSCH2 CH(CH3)2, S-Isobutyl 3-isobutylsulphonylpropionothioate], in [1] (setting [5]), the inhibition in vivo at 12.5 mg/kg amounted to 42%.

Regarding `O=C(O)c1ccccc1Nc1cccc(C(F)(F)F)c1` [Flufenamic acid], the median effective dose (ED50) in [4] (rats, oral) was determined as 36.2 µmol/kg. Also, the TD50 in data set [2] (po) was 55.1 µmol/kg. Further, the LD50 in the data set “in vivo” (po) was found to be 2040 µmol/kg. Further, the “Therapeutic range ED50 ulcer / ED50 kaolin oedema” value with kaolin oedema (rats, oral) worked out at 1.52. Further, the selectivity ratio in data set [3] (setting [7]) turned out to be 56.3.

As for `COc1ccc2c(c1)c(CC(=O)O)c(C)n2C(=O)c1ccc(Cl)cc1` [Indometacin], in data set [4] (po), the median effective dose (ED50) came to 2.9 µmol/kg. In data set [2] (rats, oral, read-out: Stomach ulcer ED50), the TD50 came out at 11.1 µmol/kg. The same compound came in with a median lethal dose (LD50) in the data set “in vivo” (po) of 68 µmol/kg. Besides, the selectivity ratio in data set [3] (po, Therapeutic range ED50 ulcer / ED50 kaolin oedema, rats) came out at 3.81; in [3] (setting [7]), 23.4.

For `CC(C)CSC(=O)CC[S+]([O-])CC(C)C` (centres unmarked) [S-isobutyl 3-isobutylsulphinylpropionothioate], the inhibition in vivo at 12.5 mg/kg in data set [1] (setting [5]) came to 17.9%.

`CC(C)SC(=O)CC[S+]([O-])C(C)C` (centres unmarked) [(CH3)2 CHSOCH2 CH2 COSCH(CH3)2, S-Isopropyl 3-isopropylsulphinylpropionothioate]: the inhibition in vivo at 12.5 mg/kg in [1] (setting [5]) is 22.7%.

For `CSCC(C)C(=O)SC` (centres unmarked) [CH3 SCH2 CH(CH3)COSCH3, S-methyl 3-methylthio-2-propylcarbonylthioate], the median effective dose (ED50) in data set [1] (setting [6]) came to 4.5 mg/kg. For the same compound, in data set [1] (Rattus norvegicus, im, rats, kaolin oedema, intramuscularly, dose 0.65 mg/kg, n = 10/dose group, read-out: Inhibition in % of the controls), the inhibition in vivo at 0.65 mg/kg turned out to be 16.6%.

Regarding `CSC(=O)CC[S+](C)[O-]` (centres unmarked) [CH3 SOCH2 CH2 COSCH3, S-Methyl 3-methylsulphinylpropionothioate], the ED50 in [1] (setting [6]) came out at 1.8 mg/kg. Besides, in [1] (Rattus norvegicus, im, rats, kaolin oedema, intramuscularly, dose 3.12 mg/kg, n = 10/dose group, read-out: Inhibition in % of the controls), the inhibition in vivo at 3.12 mg/kg was 10.2%.

`CCCCSCCC(=O)SCCCC` [C4 H9 SCH2 CH2 COSC4 H9, S-Butyl 3-butylthiopropionothioate]: in data set [1] (setting [5]), the inhibition in vivo at 50 mg/kg was determined as 77.2%.

With `CCCSCCC(=O)SCCC` [C3 H7 SCH2 CH2 COSC3 H7, S-Propyl 3-propylthiopropionothioate], the inhibition in vivo at 25 mg/kg in data set [1] (setting [5]) is 68.5%.

With `CCSCCC(=O)SCC` [C2 H5 SCH2 CH2 COSC2 H5, S-Ethyl 3-ethylthiopropionothioate], the ED50 in data set [1] (setting [6]) amounted to 3.75 mg/kg. Further, in data set [1] (Rattus norvegicus, im, rats, kaolin oedema, intramuscularly, dose 2.50 mg/kg, n = 10/dose group, read-out: Inhibition in % of the controls), the inhibition in vivo at 2.5 mg/kg came out at 58.2%.

As to `CCCSC(=O)CC[S+]([O-])CCC` (centres unmarked) [C3 H7 SOCH2 CH2 COSC3 H7, S-Propyl 3-propylsulphinylpropionothioate], the inhibition in vivo at 100 mg/kg in data set [1] (setting [5]) was 73%.

On to `CCOC(=O)CCSC` [CH3 SCH2 CH2 COOC2 H5, Ethyl 3-methylthiopropionate], for which the inhibition in vivo at 25 mg/kg in data set [1] (setting [5]) came to 16%.

As for `C=C(C)C(=O)SC` [CH2 =C(CH3)COSCH3, S-methyl methacrylthioate], the inhibition in vivo at 5 mg/kg in data set [1] (Rattus norvegicus, im, rats, kaolin oedema, intramuscularly, dose 5.00 mg/kg, n = 10/dose group, read-out: Inhibition in % of the controls) stood at 21.8%.

`CC(C)SCCC(=O)SC(C)C` [(CH3)2 CHSCH2 CH2 COSCH(CH3)2, S-Isopropyl 3-isopropylthiopropionothioate]: the inhibition in vivo at 25 mg/kg in [1] (setting [5]) is 63.2%.

Consider `CC(C)CSCCC(=O)SCC(C)C` [S-Isobutyl 3-isobutylthiopropionothioate], for which, in data set [1] (setting [5]), the inhibition in vivo at 50 mg/kg worked out at 77.2%.

Turning to `CC(C)(C)SCCC(=O)SC(C)(C)C` [(CH3)3 CSCH2 CH2 COSC(CH3)3, S-tert.-butyl 3-tert.-butylthiopropionothioate], in [1] (setting [5]), the inhibition in vivo at 12.5 mg/kg came out at 23.3%.

For `O=C(O)CCS` [HSCH2 CH2 COOH, 3-mercaptopropionic acid], the inhibition in vivo at 20 mg/kg in [1] (Rattus norvegicus, im, rats, kaolin oedema, intramuscularly, dose 20.00 mg/kg, n = 10/dose group, read-out: Inhibition in % of the controls) amounted to 8.5%.

For the compound `CCCCC1C(=O)N(c2ccccc2)N(c2ccccc2)C1=O` [Phenylbutazone], the ED50 in data set [4] (rats, oral) is 122 µmol/kg. In addition, the TD50 in data set [2] (po) worked out at 182 µmol/kg.

`CCCCSC(=O)CC[S+]([O-])CCCC` (centres unmarked) [C4 H9 SOCH2 CH2 COSC4 H9, S-Butyl 3-butylsulphinylpropionothioate]: in data set [1] (setting [5]), the inhibition in vivo at 100 mg/kg came to 73%.

As to `CCC(C)SCCC(=O)SC(C)CC` (centres unmarked) [S-sec.-Butyl 3-sec.-butylthiopropionothioate], in [1] (setting [5]), the inhibition in vivo at 50 mg/kg was determined as 72%.
